Experimental data taken from article PMC11056319, “Targeting PRMT9-mediated arginine methylation suppresses cancer stem cell maintenance and elicits cGAS-mediated anticancer immunity” (Nature Cancer, 2024).

System: Molm13
Test: cells
Parameters: Molm13 cell viability screen of virtual-screening hits, 4 days of treatment, per cent of control
Conditions: 1 uM, 4 days, 96 h
Protocol: We performed virtual screening. Briefly, we screened compounds for binding affinity to PRMT9; compounds were from the National Cancer Institute (NCI) and ZINC library (Fig. 4a,b). […] We used doses of 1 and 5 µM in a Molm13 cell-based viability assay (Extended Data Fig. 6a). […] Specifically, we assessed their effects on PRMT9 catalysis (Extended Data Fig. 6b). […] Cells were treated for 4 days with 1 or 5 μM compounds. For each compound, the number represents its library ID. Experiments were triplicated; P values were derived from t tests. b, R493 methylation assay. […] Catalytic activity was assessed by anti-R493 antibody. Synthesized R493me peptide as positive control. c, Catalysis screen of top 20 compounds. PRMT9 protein was pretreated with indicated compound (10 μM), then incubated with PABPC1 peptides and SAM. d, e, Catalytic activity of indicated compounds based on R493 methylation assay (d). Inhibition curves were calculated based on intensity of dots and normalized to DMSO (e). […] LD2 is designed based on NSC641396 (g). Docking model of NSC641396 in the catalytic pocket (f). h, IC50 analysis of LD2 in B-NHL lines. Cells were treated for 4 days with LD2. […] Cells were treated with a dose titration of 0.5–40 μM LD2 for 48 hr. The inhibition activity of LD2 to PRMT9 (right red curve) was evaluated by calculating the normalized PABPC1 R493 methylation signal. The inhibition activity of LD2 to PRMT5 (right blue curve) was evaluated by calculating the normalized SmB’B’ methylation signal (supplementary Fig. 2). k, Vina docking of LD2 with PRMT9, PRMT5, CARM1 or PRMT7 was performed, and the average docking scores (kcal/mol, with standard deviation) were shown. l, Molecular dynamics simulation analyses of LD2 with PRMT9 or PRMT5.

Row | Structure (SMILES) | % viability
1 | OC(COc1cccc2ccccc12)CN1CCN(c2ccc(Cl)cc2)CC1 (stereo not drawn) [NSC91397] | 148.7%

Same assay, conditions: 5 uM, 4 days, 96 h

Row | Structure (SMILES) | % viability
2 | OC(COc1cccc2ccccc12)CN1CCN(c2ccc(Cl)cc2)CC1 (stereo not drawn) [NSC91397] | 145.8%

Same assay, conditions: Homo sapiens, MOLM-13, 96 h, 4 days

Row | Structure (SMILES) | viability at 1 µM | viability at 5 µM
3 | O=[N+]([O-])c1ccc2[nH]c3nc4ccccc4nc3c2c1 [NSC78697] | 169% | 157%
4 | Cc1nn(-c2ccccc2)c2c1C(c1ccc([N+](=O)[O-])cc1)C(C#N)=C(N)O2 (stereo not drawn) [NSC298892] | 84.2% | 69.1%
5 | O=C(Nc1cccc2ccccc12)c1cc2c(cc1Br)OCO2 [NSC292923] | 68.9% | 68.3%
6 | Oc1ccc(N=Cc2c(O)ccc3ccccc23)cc1 [NSC111848] | 93.1% | 74.1%
7 | CC(=O)O[C@H]1CC[C@@]2(C)[C@@H](CC[C@@H]3[C@@H]2CC(=O)[C@@]2(C)[C@H]3C[C@@H]3CC(C)=CC(=O)[C@@H]32)C1 [NSC59620] |  | 93.6%
8 | N#C/C(=C\C=C\c1ccccc1)c1nc(-c2ccc(Cl)cc2)cs1 [NSC310347] | 69.3% | 74.4%
9 | Cn1ncc2c(Nc3ccccc3Cl)nc(Nc3ccccc3Cl)nc21 [NSC19061] | 158% | 
10 | c1ccc(CSc2nnc3c4ccccc4c4ccccc4c3n2)cc1 [NSC327702] | 86.4% | 82.6%
11 | O=C(/C=C/c1ccc(O)c(O)c1)O[C@@H]1C[C@@](OC(=O)/C=C/c2ccc(O)c(O)c2)(C(=O)O)C[C@@H](O)[C@@H]1O [NSC91529] | 110% | 
12 | Cc1cccc(NC2=C(C#N)C(=O)NC3(CCCC3)S2)c1 [NSC319436] | 84% | 77.3%
13 | COC(=O)[C@@H]1[C@H](O)[C@H](C)[C@H](O)[C@H](C)/C=C\C=C(/C)C(=O)Nc2c(C)c(OC(C)=O)c3c(c2O)C(=O)C(C)=C2OCOC(=C23)/C(C)=C/[C@@](C)(O)[C@H](O)[C@@H](C)[C@H]1O [NSC19990] | 68.6% | 83.8%
14 | Cc1ccc(N2CCN(CC(O)COc3cccc4ccccc34)CC2)cc1 (stereo not drawn) [NSC91402] | 156% | 145%
15 | OC(COc1cccc2ccccc12)CN1CCN(c2ccccc2)CC1 (stereo not drawn) [NSC91398] | 59.8% | 60.9%
16 | Cc1cccc2cc3cccc(C)c3nc12 [NSC61888] | 144% | 134%
17 | c1ccc(-c2nc3ccccc3nc2-c2ccc(Sc3ccc(-c4nc5ccccc5nc4-c4ccccc4)cc3)cc2)cc1 [NSC293778] | 95.7% | 
18 | COc1ccc2nc(-c3ccc(Cl)cc3)cc(C(=O)O)c2c1 [NSC39984] | 76.8% | 79.5%
19 | c1cc2c3c(cccc3c1)NC1(CCC3(CC1)Nc1cccc4cccc(c14)N3)N2 [NSC97920] | 59.1% | 8.91%
20 | O=C1c2ccccc2-c2nc3ccccc3n21 [NSC252777] | 77.6% | 63.7%
21 | Cc1cc2cc3c(=O)[nH]c(=O)[nH]c3nc2cc1C [NSC109174] |  | 79.9%
22 | COc1ccc(NC(=O)c2cc3ccc4c5ccccc5[nH]c4c3cc2O)cc1 [NSC50654] | 127% | 134%
23 | Nc1nc(N)c2cc(Sc3ccc4ccccc4c3)ccc2n1 [NSC305780] | 12.7% | 6.56%

Row | Structure (SMILES) | viability at 1 µM | viability at 5 µM
24 | CN1C2c3ccccc3C3C4c5ccccc5C(C31)C(C2[N+](=O)[O-])N4C (stereo not drawn) [NSC137112] | 146% | 148%
25 | CCCc1cc(=O)oc2c3c(c4c(c12)OC(C)(C)C=C4)OC(C)[C@H](C)[C@@H]3O (stereo partly drawn) [NSC661122] | 100% | 79.3%
26 | Cc1c(N2CCCC2)cc2c(c1NC(=O)c1ccccc1Cl)C(C)(C)CC2(C)C [NSC321496] | 92.4% | 79.1%
27 | COc1ccc2c3c([nH]c2c1)[C@H]1C[C@H]2[C@H](C[C@@H](O)[C@H](OC)[C@H]2CO)CN1CC3 [NSC80137] | 82.2% | 75.6%
28 | Cc1cc(O)c(C(C)C)cc1NC(=O)Nc1cccc2ccccc12 [NSC32673] | 90.3% | 45.8%
29 | COc1ccc(C2OC3=C(Nc4cc(C)c(C)cc4N3)C2=O)cc1 (stereo not drawn) [NSC372275] | 95.6% | 
30 | OC(COc1cccc2ccccc12)CN1CCN(c2ccccc2Cl)CC1 (stereo not drawn) [NSC91396] | 147% | 143%
31 | O=C(Nc1ccc(Nc2ccncc2)cc1)c1ccc(Nc2ccnc3ccc([N+](=O)[O-])cc23)cc1 [NSC146771] | 91.1% | 
32 | COc1ccc2c(c1)c1ccc3c(c1n2C)C(=O)C=CC3=O [NSC641396] | 2.72% | 1.44%
33 | Brc1ccc(-c2csc(Nc3nc(-c4ccc(Br)cc4)cs3)n2)cc1 [NSC55691] |  | 114%
34 | O=C(CC1C=Cc2ccccc2N1C(=O)c1ccccc1)c1ccccc1 (stereo not drawn) [NSC116709] | 90.2% | 72.7%
35 | O=C(Nc1cccc(-c2ccccc2)c1)N1CCN(C(=O)Nc2cccc(-c3ccccc3)c2)CC1 [NSC37553] | 96.2% | 
36 | Cc1cc(N=Nc2c(O)c3ccccc3[nH]c2=O)ccc1N=Nc1ccc(C(=O)N(C)C)cc1 [NSC58052] | 96% | 80.5%
37 | O=C(Oc1ccc(NC(=O)c2cc3c(cc2Br)OCO3)cc1)c1ccccc1 [NSC268487] | 83.1% | 72.1%
38 | Clc1ccc(-c2n[nH]c3c2Cc2ccccc2-3)cc1Cl [NSC331968] | 62.9% | 43.2%
39 | CCNc1nc(Cl)nc(-c2cn(-c3ccccc3)c3ccccc23)n1 [NSC142446] | 87.1% | 
40 | O=[N+]([O-])c1ccc(C2CC(c3ccccc3)=Nc3ccccc3S2)cc1 (stereo not drawn) [NSC270738] | 84.6% | 
41 | CC(=O)c1sc2c(c1OC(=O)c1ccc(Cl)cc1Cl)c(=O)n(-c1ccccc1)c(=S)n2-c1ccccc1 [NSC671136] | 71.5% | 12.8%
42 | COc1cc2c(cc1OC)C(=O)Cc1ccc3c(c1CN(C)CC2)OCO3 [NSC32984] | 137% | 
43 | Cc1c(Cl)cccc1NC(=O)CC1Sc2ccccc2NC1=O (stereo not drawn) [NSC634396] | 169% | 118%
44 | Oc1ccccc1N=Cc1c(O)ccc2ccccc12 [NSC111847] |  | 85.7%

Row | Structure (SMILES) | viability at 1 µM | viability at 5 µM
45 | COc1cccc(/C=C2\CCc3ccccc3C2=O)c1 [NSC636718] |  | 65.6%
46 | c1ccc(-c2ccc(-c3nccc4ccccc34)[nH]2)cc1 [NSC116644] |  | 88.3%
47 | CCN(CC)c1nc(Cl)nc(Nc2ccc3cc(-c4ccccc4)c(=O)oc3c2)n1 [NSC338963] | 114% | 110%
48 | O=C1c2cccc(Sc3ccccc3)c2C(=O)c2c(Sc3ccccc3)cccc21 [NSC156516] | 122% | 118%
49 | Oc1ccccc1-c1nc2c3ccccc3c3ccccc3c2[nH]1 [NSC332670] | 79.2% | 84.8%
50 | Cc1cccc2c1c1ccc3c(c1n2C)C(=O)C=CC3=O [NSC645330] | 52.5% | 10%
51 | O=C(Nc1ccccc1F)Oc1cccc(OC(=O)Nc2ccccc2F)c1 [NSC214026] | 92.2% | 91%
52 | Cc1ccc2c(c1)Sc1c(ccc3ccccc13)N2 [NSC40273] |  | 102%
53 | COc1cc(C2NC(=O)C(C#N)=C(Nc3cccc(C)c3)S2)ccc1O (stereo not drawn) [NSC319435] | 96.8% | 
54 | O=C(/C=C/C(=O)N1CCc2ccccc2C1)N1CCc2ccccc2C1 [NSC87838] | 92.3% | 92.6%
55 | O=C(O)C(Cc1c[nH]c2ccccc12)N1C(=O)c2ccccc2C1=O (stereo not drawn) [NSC401077] | 94.6% | 75.3%
56 | CO[C@@H]1C[C@](C)(O)Cc2cc3c(c(O)c21)C(=O)c1c(O)cc2c(c1C3=O)O[C@@H]1O[C@@]2(C)[C@H](O)[C@@H](N(C)C)[C@@H]1O [NSC269148] | 2.1% | 1.55%
57 | Oc1c(Cl)cc(Cl)cc1/C=N/c1nc(-c2ccc(Cl)cc2)cs1 [NSC328104] | 87.9% | 
58 | O=c1cc(-c2cccnc2)oc2c1ccc1ccccc12 [NSC283845] |  | 60.4%
59 | Cc1cc(O)c(C(C)C)cc1N=Cc1cc([N+](=O)[O-])ccc1O [NSC33472] | 120% | 
60 | CC(=O)Oc1ccc2cc(-c3ccccc3)c(=O)oc2c1 [NSC17055] |  | 102%
61 | C[C@]12C[C@H](O)[C@H]3[C@@H](CCC4=CC(=O)CC[C@@]43C)[C@@H]1CC[C@@H]2c1csc(-c2ccccc2)n1 [NSC93354] | 91.9% | 69.1%
62 | O=C(O)CCC(=O)c1ccc2ccc3cccc4ccc1c2c34 [NSC407628] | 94.7% | 100%
63 | OC(c1cc(-c2ccc(C(F)(F)F)cc2)nc(C(F)(F)F)c1)C1CCCCN1 (stereo not drawn) [NSC305798] | 91% | 18.9%
64 | Cc1ccc(NC(=S)NC(=O)c2ccccc2)cc1NC(=S)NC(=O)c1ccccc1 [NSC5856] | 91.4% | 91.5%
